Test results from ChEMBL document CHEMBL1201862, “PubChem BioAssay data set” (2004).
The source made the active and inactive calls.

Tests used:
[1] = target: Hepatocyte nuclear factor 4-alpha (Homo sapiens, UniProt P41235); assay type: functional, cell-based;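 also: biochemical luminescence-based dose-response counterscreen measuring inhibition of HNF4 dimerization, run alongside a screen for blockers of ABHD5–perilipin-5 interaction; split luciferase complementation of HNF4 fusion proteins in cell lysate measuring dimerization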
[2] = cells; assay type: functional, cell-based
[3] = cells; assay type: functional, cell-based; remark: listed apart in the source
[4] = target: Tyrosine-protein phosphatase non-receptor type 11 (Homo sapiens, UniProt Q06124); assay: PTPN11 enzyme inhibitors – biochemical, selectivity assay for STEP inhibitor project, dose response (AID 602367); assay type: functional; conditions: read-out: IC50_Mean
[5] = target: Tyrosine-protein phosphatase non-receptor type 5 (Homo sapiens, UniProt P54829); assay: PTPN5 enzyme inhibition – biochemical, fluorescence intensity, uHTS hits, confirmation (AID 602372); assay type: functional; conditions: read-out: IC50_Mean
[6] = target: Dual specificity protein phosphatase 3 (Homo sapiens, UniProt P51452); assay: VHR phosphatase inhibition, dose response, selectivity assay for STEP inhibitor project, biochemical (AID 602374); assay type: functional; conditions: read-out: IC50_Mean
[7] = reduction of Shn3 3'UTR-driven luciferase in osteoblasts – cell-based, Clone20 osteoblasts, firefly luciferase, cherry-picked, dose response (AID 624132); assay type: functional;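 also: firefly luciferase luminescence from reporter carrying the Shn3 3'UTR in osteoblasts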
[8] = tested on: INS1; assay: INS-1E survival protection against cytokine death – cell-based, luminescence, retest, dose response (AID 449756); assay type: functional; conditions: Rattus norvegicus, INS1;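 also: cell death triggered by IL-1 beta plus TNF-alpha plus IFN-gamma mixture; protective hits raise ATP signal compared with cytokine alone wells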
[9] = non-specific 3'UTR reporter inhibition in Clone20-Shn3RL – cell-based, Renilla luciferase, cherry-picked, counter-screen for Shn3 inhibitor project, dose response (AID 624133); assay type: functional
[10] = Fluorescence-based cell-based high throughput dose response assay for inhibitors of the interaction of nucleotide-binding oligomerization domain containing 2 (NOD2) and the receptor-interacting serine-threonine kinase 2 (RIPK2).; assay type: functional; conditions: Homo sapiens
[11] = target: T1, Replicative DNA helicase DnaB (Mycobacterium tuberculosis, UniProt P9WMR3); assay: DnaB intein splicing inhibitors, dose response, biochemical, cell-free fluorescence (AID 449749); assay type: functional
T1 sequence (P9WMR3 whole entry): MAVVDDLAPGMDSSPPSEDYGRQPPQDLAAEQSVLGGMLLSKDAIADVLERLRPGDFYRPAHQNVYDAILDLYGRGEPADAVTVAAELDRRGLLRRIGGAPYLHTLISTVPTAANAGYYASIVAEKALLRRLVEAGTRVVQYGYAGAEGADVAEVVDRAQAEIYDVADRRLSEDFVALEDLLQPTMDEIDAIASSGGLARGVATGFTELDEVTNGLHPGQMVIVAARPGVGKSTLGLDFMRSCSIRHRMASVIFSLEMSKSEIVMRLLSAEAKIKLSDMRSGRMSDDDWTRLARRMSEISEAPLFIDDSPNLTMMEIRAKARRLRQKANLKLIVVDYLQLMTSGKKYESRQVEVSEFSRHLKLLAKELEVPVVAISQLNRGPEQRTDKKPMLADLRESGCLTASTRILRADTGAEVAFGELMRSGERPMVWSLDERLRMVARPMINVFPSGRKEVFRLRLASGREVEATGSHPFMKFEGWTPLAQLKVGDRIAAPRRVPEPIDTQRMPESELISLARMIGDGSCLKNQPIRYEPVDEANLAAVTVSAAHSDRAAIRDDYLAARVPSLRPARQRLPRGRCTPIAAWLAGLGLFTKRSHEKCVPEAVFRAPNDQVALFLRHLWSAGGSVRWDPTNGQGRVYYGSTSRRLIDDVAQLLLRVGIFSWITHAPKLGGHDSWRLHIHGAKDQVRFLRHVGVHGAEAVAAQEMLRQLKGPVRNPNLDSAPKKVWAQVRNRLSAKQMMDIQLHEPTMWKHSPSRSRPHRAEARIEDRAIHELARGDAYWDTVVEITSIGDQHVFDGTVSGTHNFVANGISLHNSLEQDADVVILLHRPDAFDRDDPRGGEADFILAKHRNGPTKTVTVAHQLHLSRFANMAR

[12] = loss of viability in HepG2 cells – cell-based, CellTiter-Glo, cherry-picked, cytotoxicity control for Shn3 inhibitor project, dose response (AID 624134); assay type: functional
[13] = target: T2, Protein RecA (Mycobacterium tuberculosis, UniProt P9WHJ3); assay: Fluorescence Cell-Free Homogeneous Dose Retest to Identify Inhibitors of RecA-Intein Splicing Activity. [Related pubchem assays (depositor defined):AID2097, AID2223, AID489010, AID492950]; assay type: functional
T2 sequence (P9WHJ3 whole entry): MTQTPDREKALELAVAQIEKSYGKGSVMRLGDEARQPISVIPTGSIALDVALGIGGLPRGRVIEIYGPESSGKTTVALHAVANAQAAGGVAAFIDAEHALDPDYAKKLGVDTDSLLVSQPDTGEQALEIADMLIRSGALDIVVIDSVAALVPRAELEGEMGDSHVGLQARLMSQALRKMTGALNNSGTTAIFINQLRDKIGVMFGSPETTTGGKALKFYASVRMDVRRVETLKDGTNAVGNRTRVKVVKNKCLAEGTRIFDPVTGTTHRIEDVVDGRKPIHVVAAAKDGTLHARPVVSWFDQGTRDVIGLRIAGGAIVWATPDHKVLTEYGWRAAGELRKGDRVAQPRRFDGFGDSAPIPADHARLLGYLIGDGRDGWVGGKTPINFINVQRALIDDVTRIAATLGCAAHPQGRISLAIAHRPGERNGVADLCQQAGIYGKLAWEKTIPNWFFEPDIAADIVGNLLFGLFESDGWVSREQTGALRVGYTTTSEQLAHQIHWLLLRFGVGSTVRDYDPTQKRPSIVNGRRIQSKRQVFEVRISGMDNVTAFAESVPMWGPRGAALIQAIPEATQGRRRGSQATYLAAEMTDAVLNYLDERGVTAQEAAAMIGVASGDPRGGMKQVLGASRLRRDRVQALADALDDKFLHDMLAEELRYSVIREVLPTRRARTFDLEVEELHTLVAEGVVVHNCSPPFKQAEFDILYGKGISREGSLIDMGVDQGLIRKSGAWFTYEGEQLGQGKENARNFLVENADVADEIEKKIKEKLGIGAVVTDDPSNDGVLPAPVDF

[14] = target: Photoreceptor-specific nuclear receptor (Homo sapiens, UniProt Q9Y5X4); assay type: functional, cell-based;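 also: CHO-S cells with Gal4-NCOR and VP16-NR2E3 two-hybrid luciferase reporter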
[15] = target: Protein Wnt-3a (Mus musculus, UniProt P27467); assay: antagonism of Wnt3a pathway luciferase reporter – Wnt-LIGHT cells, luminescence, selectivity assay for Gli-SUFU antagonist project, dose response (AID 651570); assay type: functional; conditions: read-out: IC50_Mean;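 also: Wnt-LIGHT reporter cells stimulated with conditioned medium from Wnt3a-producing cells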
[16] = tested on: T-cell; assay: loss of vesicle association with mouse CD8+ T cells – mouse 2C CD8+ T cells, flow cytometry, dose response (AID 485284); assay type: functional
[17] = target: T3, Corticotropin-releasing factor receptor 2/Corticotropin-releasing factor-binding protein (Homo sapiens, UniProt P24387+Q13324); assay: activators of CRF receptor 2 with binding protein – uHTS hits, confirmation (AID 602473); assay type: functional; conditions: read-out: EC50_Mean
T3 sequence (Q13324 whole entry): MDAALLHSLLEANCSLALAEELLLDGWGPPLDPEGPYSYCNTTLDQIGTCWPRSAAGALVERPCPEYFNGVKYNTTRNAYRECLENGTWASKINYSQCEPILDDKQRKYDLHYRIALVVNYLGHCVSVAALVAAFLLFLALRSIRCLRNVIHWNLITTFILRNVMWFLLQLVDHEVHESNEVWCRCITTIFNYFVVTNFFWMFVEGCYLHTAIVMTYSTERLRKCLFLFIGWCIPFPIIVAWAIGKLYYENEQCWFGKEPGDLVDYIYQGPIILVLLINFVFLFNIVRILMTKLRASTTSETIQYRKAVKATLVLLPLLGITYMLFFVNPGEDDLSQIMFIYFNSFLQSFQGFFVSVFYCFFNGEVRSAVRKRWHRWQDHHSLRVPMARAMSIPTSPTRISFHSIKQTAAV
T3 sequence (P24387 whole entry): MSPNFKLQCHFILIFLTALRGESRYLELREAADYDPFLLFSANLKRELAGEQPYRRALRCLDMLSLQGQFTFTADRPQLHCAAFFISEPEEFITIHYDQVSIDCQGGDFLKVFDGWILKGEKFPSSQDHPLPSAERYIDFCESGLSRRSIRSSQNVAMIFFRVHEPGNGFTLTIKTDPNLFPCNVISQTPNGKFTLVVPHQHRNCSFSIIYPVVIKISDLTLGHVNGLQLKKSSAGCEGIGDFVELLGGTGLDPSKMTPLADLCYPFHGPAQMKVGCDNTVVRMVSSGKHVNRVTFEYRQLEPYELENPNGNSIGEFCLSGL

[18] = target: T3, Corticotropin-releasing factor receptor 2/Corticotropin-releasing factor-binding protein; assay: Dose Response confirmation of uHTS hits for small molecule antagonists of the CRF-binding protein and CRF-R2 receptor complex.; assay type: functional; conditions: read-out: IC50_Mean
[19] = blockers of CRF-binding protein–CRF-R2 complex – cell-based, uHTS hits, 384-well, dose response (AID 651639); assay type: functional, Homo sapiens; conditions: read-out: IC50_Mean
[20] = target: T4, Heat shock factor protein 1 (Mus musculus, UniProt P38532); assay: enhancement of HSF1-driven luciferase signal – cell-based, NIH3T3, luminescence, dose retest, confirmation (AID 435004); assay type: functional;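 also: stress induced by proteasome inhibitor MG132 added 30 min after compound; luciferase reporter driven by HSF1 response element in NIH3T3 cells; actives raise luminescence as potentiators of the MG132 stress response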
T4 sequence (P38532 whole entry): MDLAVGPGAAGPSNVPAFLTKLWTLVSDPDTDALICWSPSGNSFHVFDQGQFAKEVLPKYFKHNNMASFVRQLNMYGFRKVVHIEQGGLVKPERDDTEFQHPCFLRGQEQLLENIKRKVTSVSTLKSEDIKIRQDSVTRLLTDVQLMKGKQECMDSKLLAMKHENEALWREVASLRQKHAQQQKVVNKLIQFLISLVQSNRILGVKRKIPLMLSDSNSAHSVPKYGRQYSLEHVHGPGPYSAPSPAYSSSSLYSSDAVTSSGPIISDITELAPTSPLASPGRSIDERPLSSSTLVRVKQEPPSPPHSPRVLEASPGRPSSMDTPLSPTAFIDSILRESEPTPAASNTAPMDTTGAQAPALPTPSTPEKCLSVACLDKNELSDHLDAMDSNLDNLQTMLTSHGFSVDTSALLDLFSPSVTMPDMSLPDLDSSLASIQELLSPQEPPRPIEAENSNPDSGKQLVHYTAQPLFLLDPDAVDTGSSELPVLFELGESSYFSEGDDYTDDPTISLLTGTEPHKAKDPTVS

[21] = target: Cytochrome P450 2D6 (Homo sapiens, UniProt P10635);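 also: CYP2D6 member of a cytochrome P450 panel assay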
[22] = target: T5, Short transient receptor potential channel 4 (Mus musculus, UniProt Q9QUQ5); assay: calcium entry via TRPC4 opening agents – cell-based, HEK293 TRPC4/mu-opioid, Fluo-4 calcium, dose response (AID 434937); assay type: functional
T5 sequence (Q9QUQ5 whole entry): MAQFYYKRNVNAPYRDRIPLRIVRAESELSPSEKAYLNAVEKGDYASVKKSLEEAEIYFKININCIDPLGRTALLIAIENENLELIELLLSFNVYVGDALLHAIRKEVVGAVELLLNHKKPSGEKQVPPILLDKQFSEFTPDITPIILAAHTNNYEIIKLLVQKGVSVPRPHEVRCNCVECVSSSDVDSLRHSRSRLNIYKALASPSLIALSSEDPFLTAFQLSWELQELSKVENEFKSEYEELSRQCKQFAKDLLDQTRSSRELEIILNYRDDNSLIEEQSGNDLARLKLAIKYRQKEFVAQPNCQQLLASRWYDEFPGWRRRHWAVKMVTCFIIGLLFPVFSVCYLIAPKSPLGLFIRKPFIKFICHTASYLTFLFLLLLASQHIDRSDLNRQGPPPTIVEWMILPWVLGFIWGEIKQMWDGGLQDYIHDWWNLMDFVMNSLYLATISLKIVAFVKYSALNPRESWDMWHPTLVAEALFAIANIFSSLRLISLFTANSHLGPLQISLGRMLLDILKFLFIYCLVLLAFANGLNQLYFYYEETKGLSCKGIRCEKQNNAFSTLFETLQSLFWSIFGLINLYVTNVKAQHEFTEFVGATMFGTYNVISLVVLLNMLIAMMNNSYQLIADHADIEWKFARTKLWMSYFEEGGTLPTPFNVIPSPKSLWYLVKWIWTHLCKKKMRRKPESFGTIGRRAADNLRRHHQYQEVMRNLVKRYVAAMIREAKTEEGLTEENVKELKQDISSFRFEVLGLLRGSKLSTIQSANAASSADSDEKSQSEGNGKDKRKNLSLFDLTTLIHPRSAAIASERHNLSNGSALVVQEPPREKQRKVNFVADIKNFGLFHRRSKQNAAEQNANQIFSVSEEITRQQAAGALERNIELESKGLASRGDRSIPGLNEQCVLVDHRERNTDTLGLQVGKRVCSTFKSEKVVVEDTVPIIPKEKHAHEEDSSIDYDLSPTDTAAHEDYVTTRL

Chain of Protein Wnt-3a (P27467 whole entry): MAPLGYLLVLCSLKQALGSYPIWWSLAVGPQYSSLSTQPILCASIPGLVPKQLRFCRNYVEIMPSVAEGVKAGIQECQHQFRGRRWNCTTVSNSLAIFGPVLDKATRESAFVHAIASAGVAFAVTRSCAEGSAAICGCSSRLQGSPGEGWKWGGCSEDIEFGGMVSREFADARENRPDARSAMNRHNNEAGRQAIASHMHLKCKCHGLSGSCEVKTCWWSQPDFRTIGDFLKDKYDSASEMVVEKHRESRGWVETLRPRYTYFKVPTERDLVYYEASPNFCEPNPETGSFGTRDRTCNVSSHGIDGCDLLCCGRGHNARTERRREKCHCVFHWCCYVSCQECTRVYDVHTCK
Chain of Hepatocyte nuclear factor 4-alpha (P41235 whole entry, the tested form may be a part): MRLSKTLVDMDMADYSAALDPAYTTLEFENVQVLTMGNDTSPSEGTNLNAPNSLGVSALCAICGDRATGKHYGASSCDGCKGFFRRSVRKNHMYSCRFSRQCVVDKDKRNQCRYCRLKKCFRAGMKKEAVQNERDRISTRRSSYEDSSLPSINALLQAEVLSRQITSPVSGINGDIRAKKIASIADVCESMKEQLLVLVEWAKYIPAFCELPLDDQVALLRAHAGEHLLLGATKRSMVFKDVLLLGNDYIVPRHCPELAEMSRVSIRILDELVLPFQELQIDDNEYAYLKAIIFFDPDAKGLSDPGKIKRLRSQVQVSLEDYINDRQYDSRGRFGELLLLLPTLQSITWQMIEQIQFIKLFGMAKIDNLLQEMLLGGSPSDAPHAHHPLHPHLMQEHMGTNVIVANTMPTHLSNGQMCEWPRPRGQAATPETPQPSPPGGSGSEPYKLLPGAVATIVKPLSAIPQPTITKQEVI
Chain of Tyrosine-protein phosphatase non-receptor type 5 (P54829 whole entry): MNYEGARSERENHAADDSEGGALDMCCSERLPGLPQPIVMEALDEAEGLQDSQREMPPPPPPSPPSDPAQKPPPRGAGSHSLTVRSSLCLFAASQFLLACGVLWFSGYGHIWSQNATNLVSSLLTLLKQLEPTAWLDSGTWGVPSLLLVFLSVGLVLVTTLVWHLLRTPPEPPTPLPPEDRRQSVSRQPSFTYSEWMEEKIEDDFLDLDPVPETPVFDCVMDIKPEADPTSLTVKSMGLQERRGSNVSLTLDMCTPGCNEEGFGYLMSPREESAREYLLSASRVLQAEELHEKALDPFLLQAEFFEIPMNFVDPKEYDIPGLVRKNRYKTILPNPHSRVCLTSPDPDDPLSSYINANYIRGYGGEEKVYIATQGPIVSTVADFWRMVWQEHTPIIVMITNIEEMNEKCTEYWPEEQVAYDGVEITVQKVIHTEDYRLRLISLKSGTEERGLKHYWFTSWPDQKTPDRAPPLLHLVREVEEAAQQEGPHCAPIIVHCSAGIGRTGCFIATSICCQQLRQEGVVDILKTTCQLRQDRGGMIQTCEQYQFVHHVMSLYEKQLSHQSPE
Chain of Photoreceptor-specific nuclear receptor (Q9Y5X4 whole entry, the tested form may be a part): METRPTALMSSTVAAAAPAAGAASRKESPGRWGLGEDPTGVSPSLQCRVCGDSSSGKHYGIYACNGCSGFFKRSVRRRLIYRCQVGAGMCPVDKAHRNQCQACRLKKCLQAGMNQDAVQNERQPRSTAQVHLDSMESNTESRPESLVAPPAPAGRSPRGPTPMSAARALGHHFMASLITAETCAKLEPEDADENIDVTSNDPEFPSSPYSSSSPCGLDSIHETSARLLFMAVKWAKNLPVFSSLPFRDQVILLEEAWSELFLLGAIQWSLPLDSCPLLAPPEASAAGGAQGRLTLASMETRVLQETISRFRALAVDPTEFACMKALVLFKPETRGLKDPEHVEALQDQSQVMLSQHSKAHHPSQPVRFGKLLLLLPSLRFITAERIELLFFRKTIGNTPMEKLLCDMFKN
Chain of Cytochrome P450 2D6 (P10635 whole entry): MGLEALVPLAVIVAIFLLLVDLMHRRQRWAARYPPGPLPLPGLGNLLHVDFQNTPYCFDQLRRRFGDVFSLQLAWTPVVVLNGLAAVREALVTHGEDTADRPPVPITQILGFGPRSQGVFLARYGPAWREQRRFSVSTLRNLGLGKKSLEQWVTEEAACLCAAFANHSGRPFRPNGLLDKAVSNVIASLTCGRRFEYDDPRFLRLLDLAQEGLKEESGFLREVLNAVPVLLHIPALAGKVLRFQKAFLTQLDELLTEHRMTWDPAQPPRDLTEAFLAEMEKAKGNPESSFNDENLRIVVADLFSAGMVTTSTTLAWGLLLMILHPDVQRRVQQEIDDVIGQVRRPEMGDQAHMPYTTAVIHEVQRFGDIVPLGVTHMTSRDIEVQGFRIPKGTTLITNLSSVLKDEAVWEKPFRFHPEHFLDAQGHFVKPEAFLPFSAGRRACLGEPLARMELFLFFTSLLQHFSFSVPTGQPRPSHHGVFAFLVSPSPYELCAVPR
Chain of Tyrosine-protein phosphatase non-receptor type 11 (Q06124 whole entry): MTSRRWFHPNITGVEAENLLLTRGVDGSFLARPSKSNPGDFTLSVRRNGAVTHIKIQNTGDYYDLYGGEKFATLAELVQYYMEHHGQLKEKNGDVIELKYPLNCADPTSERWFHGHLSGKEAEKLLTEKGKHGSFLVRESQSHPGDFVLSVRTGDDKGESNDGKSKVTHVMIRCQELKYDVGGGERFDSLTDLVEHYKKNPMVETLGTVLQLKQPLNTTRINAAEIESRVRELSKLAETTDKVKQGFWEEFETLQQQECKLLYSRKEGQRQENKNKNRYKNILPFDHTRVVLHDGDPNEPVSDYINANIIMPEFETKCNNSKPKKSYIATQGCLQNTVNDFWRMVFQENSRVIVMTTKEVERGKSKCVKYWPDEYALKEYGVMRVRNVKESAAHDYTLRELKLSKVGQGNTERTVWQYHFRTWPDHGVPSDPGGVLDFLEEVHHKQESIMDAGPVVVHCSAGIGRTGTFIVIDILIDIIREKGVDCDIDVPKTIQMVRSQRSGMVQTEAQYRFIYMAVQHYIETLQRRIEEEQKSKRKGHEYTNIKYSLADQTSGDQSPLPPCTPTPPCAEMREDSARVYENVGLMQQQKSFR
Chain of Dual specificity protein phosphatase 3 (P51452 whole entry): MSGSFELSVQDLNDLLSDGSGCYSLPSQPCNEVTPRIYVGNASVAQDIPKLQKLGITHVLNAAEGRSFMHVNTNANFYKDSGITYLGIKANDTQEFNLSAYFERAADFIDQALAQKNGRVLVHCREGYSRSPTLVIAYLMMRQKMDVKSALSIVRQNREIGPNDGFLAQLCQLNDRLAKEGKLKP

## COc1ccccc1/C=C/C(=O)c1ccccc1
[1]
  IC50: 7.12 µM (active)
[2]
  EC50: > 350 µM (not active)
[3]
  EC50: 6.12 µM (active)

## S=C(c1ccc(Br)cc1)N1CCN(Cc2ccccc2)CC1
[4]
  IC50: 1.81 µM (active)
[5]
  IC50: 22.7 µM (inactive)
[6]
  IC50: 719 nM (active)

## O=C(NCc1cccnc1)/C(=C\c1ccc(-c2ccc(Br)cc2)o1)S(=O)(=O)c1ccccc1
[7]
  AC50: 6.33 µM (active)
[8]
  AC50: 2.9 µM (active)
[9]
  AC50: 13 µM (active)
[10]
  IC50: 5.51 µM (active)
[11]
  AC50: > 380 µM (inconclusive)
[12]
  AC50: 11.3 µM (active)
[13]
  EC50: 20.2 µM (active)

## Cc1ccc(OCCOC(=O)c2cc(S(=O)(=O)N3CCCCC3)ccc2N2CCOCC2)cc1
[14]
  IC50: 12.6 µM (inactive)
[15]
  IC50: 4.83 µM (active)
[16]
  EC50: 11.8 µM (active)

## CCOC(=O)c1c(-c2ccccc2)oc2ccc(OC(C)C(=O)O)cc12 (stereo unspecified)
[17]
  EC50: > 53 µM (inactive)
[18]
  IC50: < 0.368 µM (active)
[19]
  IC50: 0.34 µM (active)

## COc1cccc(CSc2nnc(C(F)(F)F)n2Cc2ccc(F)cc2)c1
[17]
  EC50: > 53 µM (inactive)
[18]
  IC50: 7.2 µM (active)
[20]
  EC50: > 260 µM (inactive)
[21]
  AC50: 10 µM (inconclusive)
[19]
  IC50: > 20 µM (inactive)

## Cc1sc2ncnc(NCC(C)(C)N3CCOCC3)c2c1C
[7]
  AC50: 1.36 µM (active)
[22]
  EC50: 841 nM (active)
[8]
  AC50: 2.96 µM (active)
[9]
  AC50: 3 µM (active)
[12]
  AC50: 4.09 µM (active)
[15]
  IC50: 0.942 µM (active)

## O=C(NC1CCCCC1)C(c1cc2ccccc2o1)n1c(=O)c(-c2ccco2)nc2ccccc21 (stereo unspecified)
[1]
  IC50: 2.19 µM (active)
